In patent US20080161320A1, “FUSED BICYCLIC PYRIMIDINES AS PTK INHIBITORS CONTAINING A ZINC BINDING MOIETY” (priority 2006, published 2008):

Columns and labels:
[1] = biological target: human VEGFR2 (Homo sapiens, UniProt P35968); assay: HTScan Receptor Kinase Assay, VEGFR2;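 also: recombinant GST-His-tagged human VEGFR2 kinase domain phosphorylating biotinylated gastrin precursor peptide, 30 min at room temperature, phosphotyrosine detected by Europium-labelled antibody time-resolved fluorescence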
[2] = test system: HDAC; assay: HDAC fluorimetric assay kit (AK-500, Biomol), HeLa nuclear extract; assay type: biochemical
Procedure: HDAC inhibitors were screened using an HDAC fluorimetric assay kit (AK-500, Biomol, Plymouth Meeting, Pa.). […] Each assay was setup as follows: Defrosted all kit components and kept on ice until use. […] Prepared dilutions of Trichostatin A (TSA, positive control) and tested compounds in assay buffer (5× of final concentration). Diluted Fluor de Lys™ Substrate in assay buffer to 100 uM (50 fold=2× final). Diluted Fluor de Lys™ developer concentrate 20-fold (e.g. 50 μl plus 950 μl Assay Buffer) in cold assay buffer. Second, diluted the 0.2 mM Trichostatin A 100-fold in the 1× Developer (e.g. 10 μl in 1 ml; final Trichostatin A concentration in the 1× Developer=2 μM; final concentration after addition to HDAC/Substrate reaction=1 μM). Added Assay buffer, diluted trichostatin A or test inhibitor to appropriate wells of the microtiter plate. Added diluted HeLa extract or other HDAC sample to all wells except for negative controls.

[3] = biological target: T1, human EGFR (Homo sapiens, UniProt P00533); assay: HTScan Receptor Kinase Assay, EGFR; assay type: biochemical
T1 construct: human EGFR (His672-Ala1210); GST (N); purchased Cell Signaling Technologies; host or cells: baculovirus expression system

[4] = biological target: human HER2/ErbB2 (Homo sapiens, UniProt P04626); assay: HTScan Receptor Kinase Assay, HER2/ErbB2;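 also: europium time-resolved fluorescence detection of anti-phosphotyrosine antibody binding to biotinylated FLT3 (Tyr589) peptide phosphorylated by the kinase, 30 min reaction at room temperature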
Chain of human HER2/ErbB2 (P04626 676-1255): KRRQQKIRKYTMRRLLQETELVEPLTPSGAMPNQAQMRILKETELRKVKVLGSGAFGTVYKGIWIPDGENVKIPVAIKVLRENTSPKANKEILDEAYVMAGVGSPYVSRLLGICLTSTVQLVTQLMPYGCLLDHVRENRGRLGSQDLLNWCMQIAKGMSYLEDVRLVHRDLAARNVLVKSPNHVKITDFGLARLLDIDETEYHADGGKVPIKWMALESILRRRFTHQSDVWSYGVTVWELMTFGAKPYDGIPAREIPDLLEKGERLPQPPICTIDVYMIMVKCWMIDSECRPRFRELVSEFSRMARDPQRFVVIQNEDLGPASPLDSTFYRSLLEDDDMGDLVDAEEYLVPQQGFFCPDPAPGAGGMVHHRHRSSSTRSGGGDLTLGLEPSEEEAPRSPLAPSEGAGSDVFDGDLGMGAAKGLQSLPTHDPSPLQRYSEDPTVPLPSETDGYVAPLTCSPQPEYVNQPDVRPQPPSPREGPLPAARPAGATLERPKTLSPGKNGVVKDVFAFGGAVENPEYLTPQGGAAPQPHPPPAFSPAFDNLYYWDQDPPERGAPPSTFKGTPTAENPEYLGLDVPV

T1 sequence (P00533 672-1210): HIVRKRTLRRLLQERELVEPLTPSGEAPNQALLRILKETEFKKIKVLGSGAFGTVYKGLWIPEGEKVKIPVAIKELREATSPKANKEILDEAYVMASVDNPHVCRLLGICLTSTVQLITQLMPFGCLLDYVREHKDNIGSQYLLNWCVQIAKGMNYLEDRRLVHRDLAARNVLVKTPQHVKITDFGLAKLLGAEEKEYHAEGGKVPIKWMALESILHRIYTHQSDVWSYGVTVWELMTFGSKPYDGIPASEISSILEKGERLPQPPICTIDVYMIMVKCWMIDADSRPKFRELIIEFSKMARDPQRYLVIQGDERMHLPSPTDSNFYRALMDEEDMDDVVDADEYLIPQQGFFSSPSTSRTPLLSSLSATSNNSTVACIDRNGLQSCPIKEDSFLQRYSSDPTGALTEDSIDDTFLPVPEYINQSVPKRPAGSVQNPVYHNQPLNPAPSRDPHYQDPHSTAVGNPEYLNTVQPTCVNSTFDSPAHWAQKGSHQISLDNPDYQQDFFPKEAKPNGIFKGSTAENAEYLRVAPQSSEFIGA
Chain of human VEGFR2 (P35968 807-1356 limits assumed): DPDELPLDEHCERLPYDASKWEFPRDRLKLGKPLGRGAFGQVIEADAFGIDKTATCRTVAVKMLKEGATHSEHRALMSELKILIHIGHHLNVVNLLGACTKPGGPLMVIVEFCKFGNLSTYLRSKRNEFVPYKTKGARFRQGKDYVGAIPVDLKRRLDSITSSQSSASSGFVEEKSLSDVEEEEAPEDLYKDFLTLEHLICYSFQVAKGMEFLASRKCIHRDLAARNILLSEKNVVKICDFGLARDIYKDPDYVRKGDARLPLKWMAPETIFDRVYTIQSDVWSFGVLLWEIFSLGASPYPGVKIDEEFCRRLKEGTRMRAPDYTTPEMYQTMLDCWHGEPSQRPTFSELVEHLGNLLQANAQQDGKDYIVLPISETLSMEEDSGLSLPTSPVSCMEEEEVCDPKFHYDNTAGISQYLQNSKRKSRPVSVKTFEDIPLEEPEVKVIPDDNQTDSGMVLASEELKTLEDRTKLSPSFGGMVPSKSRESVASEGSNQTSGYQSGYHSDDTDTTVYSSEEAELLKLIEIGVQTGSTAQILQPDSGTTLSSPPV

Row | Compound | IC50 [1] | IC50 [2] | IC50 [3] | IC50 [4]
1 | C[C@@H](Nc1ncnc2[nH]c(-c3ccc(CNCCC(=O)NO)cc3)cc12)c1ccccc1 [Compound 2, (R)—N-Hydroxy-3-(4-(4-(1-phenylethylamino)-7H-pyrrolo[2,3-d]pyrimidin-6-yl)benzylamino)-propanamide] | 0.1 to 1 µM | > 10 µM |  | 
2 | C[C@@H](Nc1ncnc2[nH]c(-c3ccc(C(=O)NCCNCC(=O)NO)cc3)cc12)c1ccccc1 [Compound 28, (R)—N-(2-(2-(Hydroxyamino)-2-oxoethylamino)ethyl)-4-(4-(1-phenylethylamino)-7H-pyrrolo[2,3-d]pyrimidin-6-yl)benzamide] | 0.1 to 1 µM | > 10 µM | 0.1 to 1 µM | 0.1 to 1 µM
3 | C[C@@H](Nc1ncnc2[nH]c(-c3ccc(CN4CCN(CCC(=O)NO)CC4)cc3)cc12)c1ccccc1 [Compound 12, (R)—N-Hydroxy-3-(4-(4-(4-(1-phenylethylamino)-7H-pyrrolo[2,3-d]pyrimidin-6-yl)benzyl)piperazin-1-yl)propanamide] | 0.1 to 1 µM | > 10 µM | < 0.1 µM | < 0.1 µM
4 | O=C(CCCCCCOc1ccc(-c2cc3c(NCc4ccccc4)ncnc3[nH]2)cc1)NO [Compound 38, 7-(4-(4-(benzylamino)-7H-pyrrolo[2,3-d]pyrimidin-6-yl)phenoxy)-N-hydroxyheptanamide] | 1 to 10 µM | < 0.1 µM | 0.1 to 1 µM | 1 to 10 µM
5 | C[C@@H](Nc1ncnc2[nH]c(-c3ccc(CNCc4ccc(C(=O)NO)cc4)cc3)cc12)c1ccccc1 [Compound 44, (R)—N-hydroxy-4-((4-(4-(1-phenylethylamino)-7H-pyrrolo[2,3-d]pyrimidin-6-yl)benzylamino)methyl)benzamide] | 0.1 to 1 µM | 0.1 to 1 µM | < 0.1 µM | 0.1 to 1 µM
6 | C[C@@H](Nc1ncnc2[nH]c(-c3ccc(CN4CCN(CCCCCC(=O)NO)CC4)cc3)cc12)c1ccccc1 [Compound 15, (R)—N-Hydroxy-6-(4-(4-(4-(1-phenylethylamino)-7H-pyrrolo[2,3-d]pyrimidin-6-yl)benzyl)piperazin-1-yl)hexanamide] | 0.1 to 1 µM | 0.1 to 1 µM |  | 0.1 to 1 µM
7 | C[C@@H](Nc1ncnc2[nH]c(-c3ccc(C(=O)NCCNCCC(=O)NO)cc3)cc12)c1ccccc1 [Compound 29, (R)—N-(2-(3-(Hydroxyamino)-3-oxopropylamino)ethyl)-4-(4-(1-phenylethylamino)-7H-pyrrolo[2,3-d]pyrimidin-6-yl)benzamide] | 0.1 to 1 µM | < 0.1 µM | < 0.1 µM | 0.1 to 1 µM
8 | O=C(NO)c1ccc(-c2cc3c(NCc4ccccc4)ncnc3[nH]2)cc1 [Compound 40] | 1 to 10 µM | 0.1 to 1 µM | < 0.1 µM | 0.1 to 1 µM
9 | C[C@@H](Nc1ncnc2[nH]c(-c3ccc(NC(=O)CCCC(=O)NO)cc3)cc12)c1ccccc1 [Compound 25, (R)—N^1-Hydroxy-N^5-(4-(4-(1-phenylethylamino)-7H-pyrrolo[2,3-d]pyrimidin-6-yl)phenyl)glutaramide] | 0.1 to 1 µM | 0.1 to 1 µM | < 0.1 µM | 0.1 to 1 µM
10 | C[C@@H](Nc1ncnc2[nH]c(-c3ccc(OCCCCCC(=O)NO)cc3)cc12)c1ccccc1 [Compound 21, (R)—N-hydroxy-6-(4-(4-(1-phenylethylamino)-7H-pyrrolo[2,3-d]pyrimidin-6-yl)phenoxy)hexanamide] | 1 to 10 µM | < 0.1 µM | < 0.1 µM | 0.1 to 1 µM
11 | C[C@@H](Nc1ncnc2[nH]c(-c3ccc(CN4CCN(CCCCCC(=O)NO)CC4)cc3)cc12)c1ccc(F)cc1 [Compound 35] | 0.1 to 1 µM | 0.1 to 1 µM |  | 0.1 to 1 µM
12 | C[C@@H](Nc1ncnc2[nH]c(-c3ccc(CN4CCN(CCCCC(=O)NO)CC4)cc3)cc12)c1ccccc1 [Compound 14, (R)—N-Hydroxy-5-(4-(4-(4-(1-phenylethylamino)-7H-pyrrolo[2,3-d]pyrimidin-6-yl)benzyl)piperazin-1-yl)pentanamide] | 0.1 to 1 µM | 1 to 10 µM | < 0.1 µM | 0.1 to 1 µM
13 | C[C@@H](Nc1ncnc2[nH]c(-c3ccc(CNCC(=O)NO)cc3)cc12)c1ccccc1 [Compound 1, (R)—N-Hydroxy-2-(4-(4-(1-phenylethylamino)-7H-pyrrolo[2,3-d]pyrimidin-6-yl)benzylamino)acetamide] |  | 1 to 10 µM | 1 to 10 µM | 1 to 10 µM
14 | C[C@@H](Nc1ncnc2[nH]c(-c3ccc(NC(=O)Nc4ccc(/C=C/C(=O)NO)cc4)cc3)cc12)c1ccccc1 [Compound 47] |  | 1 to 10 µM |  | 
15 | C[C@@H](Nc1ncnc2[nH]c(-c3ccc(CNCc4ccc(/C=C/C(=O)NO)cc4)cc3)cc12)c1ccccc1 [Compound 45, (R,E)-N-hydroxy-3-(4-((4-(4-(1-phenylethylamino)-7H-pyrrolo[2,3-d]pyrimidin-6-yl)benzylamino)methyl)phenyl)acrylamide] | > 10 µM |  | > 10 µM | > 10 µM
16 | C[C@@H](Nc1ncnc2[nH]c(-c3ccc(NC(=O)Nc4ccc(C(=O)NO)cc4)cc3)cc12)c1ccccc1 [Compound 46] |  | 0.1 to 1 µM |  | 
17 | C[C@@H](Nc1ncnc2[nH]c(-c3ccc(CN4CCC(NCCCCCC(=O)NO)CC4)cc3)cc12)c1ccccc1 [Compound 55, (R)—N-hydroxy-6-(1-(4-(4-(1-phenylethylamino)-7H-pyrrolo[2,3-d]pyrimidin-6-yl)benzyl)piperidin-4-ylamino)hexanamide] |  | 1 to 10 µM |  | 
18 | C[C@@H](Nc1ncnc2[nH]c(-c3ccc(CN4CCN(CCOCCCCC(=O)NO)CC4)cc3)cc12)c1ccccc1 [Compound 50, (R)—N-hydroxy-5-(2-(4-(4-(4-(1-phenylethylamino)-7H-pyrrolo[2,3-d]pyrimidin-6-yl)benzyl)piperazin-1-yl)ethoxy)pentanamide] |  | 1 to 10 µM |  | 
19 | C[C@@H](Nc1ncnc2[nH]c(-c3ccc(CN4CCN(CCOCCCCCC(=O)NO)CC4)cc3)cc12)c1ccccc1 [Compound 51, (R)—N-hydroxy-6-(2-(4-(4-(4-(1-phenylethylamino)-7H-pyrrolo[2,3-d]pyrimidin-6-yl)benzyl)piperazin-1-yl)ethoxy)hexanamide] |  | < 0.1 µM |  | 

The remaining lines, values ahead:

Row | IC50 [1] | IC50 [2] | IC50 [3] | IC50 [4] | Compound
20 | < 0.1 µM | 0.1 to 1 µM | < 0.1 µM | < 0.1 µM | C[C@@H](Nc1ncnc2[nH]c(-c3ccc(OCCNCCCCCCC(=O)NO)cc3)cc12)c1ccccc1 [Compound 60, (R)—N-hydroxy-7-(2-(4-(4-(1-phenylethylamino)-7H-pyrrolo[2,3-d]pyrimidin-6-yl)phenoxy)ethylamino)heptanamide]
21 | 1 to 10 µM | 0.1 to 1 µM |  | 0.1 to 1 µM | C[C@@H](Nc1ncnc2c1cc(-c1ccc(C(=O)NCCNCCCCCCC(=O)NO)cc1)n2C)c1ccccc1 [Compound 58]
22 |  | 0.1 to 1 µM |  |  | C[C@@H](Nc1ncnc2c1cc(-c1ccc(CNCCN)cc1)n2CCCCCC(=O)NO)c1ccccc1 [Compound 63]
23 |  | 0.1 to 1 µM |  |  | C[C@@H](Nc1ncnc2c1cc(-c1ccc(N)cc1)n2CCCCCC(=O)NO)c1ccccc1 [Compound 64]
24 |  | 0.1 to 1 µM |  | < 0.1 µM | C[C@@H](Nc1ncnc2[nH]c(-c3ccc(CN4CCC(NCCCCCCCC(=O)NO)CC4)cc3)cc12)c1ccccc1 [Compound 57, (R)—N-hydroxy-8-(1-(4-(4-(1-phenylethylamino)-7H-pyrrolo[2,3-d]pyrimidin-6-yl)benzyl)piperidin-4-ylamino)octanamide]
25 | < 0.1 µM |  | < 0.1 µM | < 0.1 µM | C[C@@H](Nc1ncnc2[nH]c(-c3ccc(NCCCCCC(=O)NO)cc3)cc12)c1ccccc1 [Compound 66, (R)—N-hydroxy-6-(4-(4-(1-phenylethylamino)-7H-pyrrolo[2,3-d]pyrimidin-6-yl)phenylamino)hexanamide]
26 |  | 0.1 to 1 µM |  |  | C[C@@H](Nc1ncnc2[nH]c(-c3ccc(OCCNCCCCCC(=O)NO)cc3)cc12)c1ccccc1 [Compound 59, (R)—N-hydroxy-6-(2-(4-(4-(1-phenylethylamino)-7H-pyrrolo[2,3-d]pyrimidin-6-yl)phenoxy)ethylamino)hexanamide]
27 |  | 1 to 10 µM |  |  | C[C@@H](Nc1ncnc2[nH]c(-c3ccc(OCCCNCCCCCC(=O)NO)cc3)cc12)c1ccccc1 [Compound 62]
28 |  | 0.1 to 1 µM |  | < 0.1 µM | C[C@@H](Nc1ncnc2[nH]c(-c3ccc(OCCNCCCCCCCC(=O)NO)cc3)cc12)c1ccccc1 [Compound 61, (R)—N-hydroxy-8-(2-(4-(4-(1-phenylethylamino)-7H-pyrrolo[2,3-d]pyrimidin-6-yl)phenoxy)ethylamino)octanamide]
29 |  | 1 to 10 µM |  |  | C[C@@H](Nc1ncnc2[nH]c(-c3ccc(CN4CCC(NCCCCCCC(=O)NO)CC4)cc3)cc12)c1ccccc1 [Compound 56, (R)—N-hydroxy-7-(1-(4-(4-(1-phenylethylamino)-7H-pyrrolo[2,3-d]pyrimidin-6-yl)benzyl)piperidin-4-ylamino)heptanamide]
30 |  | < 0.1 µM |  |  | C[C@@H](Nc1ncnc2c1cc(-c1ccc(N)cc1)n2CCCCCCC(=O)NO)c1ccccc1 [Compound 65]
